Measurements reported in patent US20250136570A1 (Tango Therapeutics, Inc., priority 2021, published 2025).

What was measured:
HDAC3/NCor2 = HDAC3/NCor2 (Homo sapiens (Human), UniProt O15379); assay: HDAC3 inhibition, Fluor de Lys fluorescent enzyme assay; format: biochemical; settings: 3 hours pre-incubation at room temp; 1.2 nM enzyme; 16 μM Fluor de Lys substrate; duplicate
Text: (§1) Recombinant HDAC1 (cat #: 50051) and HDAC3/NCor2 (cat #: 50003) enzymes were purchased from BPS Bioscience (San Diego, CA, US). Assay reagents for the detection of HDAC enzyme activity (Fluor de Lys®—Green substrate and Developer kits) were purchased from Enzo Life Science (Farmingdale, NY, US). Plates used to conduct the enzyme reaction were Proxiplate-384 (cat #: 6008280) Plus from PerkinElmer (Waltham, MA, US). TSA, an HDAC inhibitor, was purchased from Enzo Life Science (cat #BML-GR309-9090) The remainder of the reagents used to prepare the assay buffer were purchased from Sigma-Aldrich (St Louis, MO, US). Unless stated otherwise, HDAC1 and 3 assays were conducted in 50 mM Tris buffer, pH 8, 137 mM NaCl, 2.7 mM KCl, 0.01% BSA.
(§2) IC50 determination for HDAC1 and HDAC3—Prior to adding reagents, 50 nL/well of compound were added to Proxiplates using an Echo dispenser instrument (Beckman Coulter, CA, US). After addition of compound, 2.5 μL/well of 2× enzyme solution was added and the enzyme was pre-incubated with compound for 3 hours at room temp. (˜22° C.). After the pre-incubation period, the enzyme reaction was initiated by adding 2.5 μL/well of 2× Fluor de Lys® substrate solution. The assay reaction was stopped after one hour by adding 5 μl/well of a 0.66× Developer solution containing TSA (3.2 μM). The final product of the enzyme reaction was read using a Spectramax plate reader instrument (Molecular Devices, CA, US) using a fluorescent readout (Ex 360 nm/Em 460 nm). The final enzyme concentrations in the assay buffer for HDAC1 and 3 were 6 and 1.2 nM, respectively. The final Fluor de Lys® substrate concentration in the assay buffer was 16 μM for all HDAC enzymes. IC50 values were determined using the following equation: […]
(§3) Where Efree and Eo are the free and total amount of HDAC enzyme in the reaction mixture, n is the hill coefficient, I is the free inhibitor concentration, and IC50 is the measure of the potency equivalent to the inhibitor concentration that leads to a 50% occupancy of the total enzyme. Each data was generated in duplicate.

Recombinant HDAC1 = Recombinant HDAC1 (Homo sapiens (Human), UniProt Q13547); assay: HDAC1 inhibition, Fluor de Lys fluorescent enzyme assay; format: biochemical; settings: 3 hours pre-incubation at room temp; 6 nM enzyme; 16 μM Fluor de Lys substrate; duplicate
Text: as §1, §2, §3

Sequence of HDAC3/NCor2 (O15379 whole entry): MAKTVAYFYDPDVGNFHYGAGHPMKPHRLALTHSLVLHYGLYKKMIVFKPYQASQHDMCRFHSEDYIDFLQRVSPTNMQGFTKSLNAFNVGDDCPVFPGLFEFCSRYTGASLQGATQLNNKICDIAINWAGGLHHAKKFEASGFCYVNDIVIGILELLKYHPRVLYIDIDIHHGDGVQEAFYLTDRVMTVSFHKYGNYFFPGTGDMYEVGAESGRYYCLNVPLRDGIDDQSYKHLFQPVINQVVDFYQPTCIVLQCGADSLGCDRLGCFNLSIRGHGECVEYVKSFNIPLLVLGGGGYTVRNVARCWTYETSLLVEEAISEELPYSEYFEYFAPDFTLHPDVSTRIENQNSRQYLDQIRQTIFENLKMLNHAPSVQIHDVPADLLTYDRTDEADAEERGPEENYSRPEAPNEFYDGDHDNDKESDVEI
Sequence of HDAC3/NCor2 (Q9Y618 395-489 partner): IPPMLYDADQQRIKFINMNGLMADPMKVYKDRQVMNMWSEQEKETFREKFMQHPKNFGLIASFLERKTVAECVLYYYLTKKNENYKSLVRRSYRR
Sequence of Recombinant HDAC1 (Q13547 whole entry): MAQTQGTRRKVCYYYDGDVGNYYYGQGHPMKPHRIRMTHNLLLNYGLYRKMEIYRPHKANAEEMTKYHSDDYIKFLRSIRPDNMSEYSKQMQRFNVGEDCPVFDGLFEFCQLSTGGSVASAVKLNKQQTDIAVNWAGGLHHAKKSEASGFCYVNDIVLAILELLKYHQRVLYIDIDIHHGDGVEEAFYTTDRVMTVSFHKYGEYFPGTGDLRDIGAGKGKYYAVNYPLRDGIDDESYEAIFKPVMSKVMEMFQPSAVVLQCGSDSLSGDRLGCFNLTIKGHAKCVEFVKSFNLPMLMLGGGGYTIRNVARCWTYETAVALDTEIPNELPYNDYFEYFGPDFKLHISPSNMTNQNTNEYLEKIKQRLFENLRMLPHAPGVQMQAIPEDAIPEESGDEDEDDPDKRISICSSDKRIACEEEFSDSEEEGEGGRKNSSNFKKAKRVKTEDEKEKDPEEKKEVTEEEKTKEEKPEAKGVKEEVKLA

Compound	IC50 (HDAC3/NCor2) [nM]	IC50 (Recombinant HDAC1) [nM]
N=[S@](=O)(c1ccc(C(=O)Nc2cc(-c3ccc(F)cc3)ccc2N)cc1)C1CC1 (single isomer, unassigned) [Compound 145]	500 to 2000	< 100
CC1CCS(=O)(c2ccc(C(=O)Nc3cc(-c4ccc(F)cc4)ccc3N)cc2)=N1 (centres unmarked) [Compound 244]	> 2000	< 100
N=S(=O)(c1ccc(C(=O)Nc2cc(-c3ccc(F)cc3)ccc2N)cc1)c1cccnc1 (centres unmarked) [Compound 172, N-[2-amino-5-(4-fluorophenyl)phenyl]-4-(3-pyridylsulfonimidoyl)benzamide]	500 to 2000	< 100
CS(=N)(=O)c1ccc(C(=O)Nc2cc(-c3ccsc3)ccc2N)cc1 (centres unmarked) [Compound 249, N-[2-amino-5-(3-thienyl)phenyl]-4-(methylsulfonimidoyl)benzamide]	500 to 2000	< 100
Cc1cccc(S(=N)(=O)c2ccc(C(=O)Nc3cc(-c4ccc(F)cc4)ccc3N)cc2)n1 (centres unmarked) [Compound 215, N-[2-amino-5-(4-fluorophenyl)phenyl]-4-[(6-methyl-2-pyridyl)sulfonimidoyl]benzamide]	500 to 2000	< 100
N=S(=O)(c1ccc(C(=O)Nc2cc(-c3cccs3)ccc2N)cc1)c1ccccn1 (centres unmarked) [Compound 150, N-[2-amino-5-(2-thienyl)phenyl]-4-(2-pyridylsulfonimidoyl)benzamide]	500 to 2000	< 100
CS(=O)(=NC1CC1)c1ccc2sc(C(=O)Nc3cc(-c4ccc(F)cc4)ccc3N)cc2c1 (centres unmarked) [Compound 211, N-[2-amino-5-(4-fluorophenyl)phenyl]-5-(N-cyclopropyl-S-methyl-sulfonimidoyl)benzothiophene-2-carboxamide]	500 to 2000	< 100
CS(=N)(=O)c1ccc(C(=O)Nc2cc(-c3ccc(C(F)(F)F)cc3)ccc2N)cc1 (centres unmarked) [Compound 142, N-[2-amino-5-[4-(trifluoromethyl)phenyl]phenyl]-4-(methylsulfonimidoyl)benzamide]	> 2000	500 to 2000
CS(=N)(=O)c1ccc(C(=O)Nc2cc(-c3ccc(F)cc3)ccc2N)cc1 (centres unmarked) [Compound 104, N-[2-amino-5-(4-fluorophenyl)phenyl]-4-(methylsulfonimidoyl)benzamide]	500 to 2000	< 100
N=S(=O)(c1ccncc1)c1ccc(C(=O)Nc2cc(-c3ccc(F)cc3)ccc2N)cc1 (centres unmarked) [Compound 168, N-[2-amino-5-(4-fluorophenyl)phenyl]-4-(4-pyridylsulfonimidoyl)benzamide]	500 to 2000	< 100
CC(C)(C)OC(=O)N=S(=O)(c1ccc(C(=O)Nc2cc(-c3cccs3)ccc2NC(=O)OC(C)(C)C)cc1)C1CC1 (centres unmarked) [Compound 112, tert-butyl N-[[4-[[2-(tert-butoxycarbonylamino)-5-(2-thienyl)phenyl]carbamoyl]phenyl]-cyclopropyl-oxo-sulfanylidene]carbamate]	> 2000	> 2000
CS(=N)(=O)c1ccc(C(=O)Nc2cc(-c3ccc(Cl)s3)ccc2N)cc1 (centres unmarked) [Compound 137, N-[2-amino-5-(5-chloro-2-thienyl)phenyl]-4-(methylsulfonimidoyl)benzamide]	500 to 2000	< 100
CS(=N)(=O)c1cc2sc(C(=O)Nc3cc(-c4ccc(F)cc4)ccc3N)cc2cn1 (centres unmarked) [Compound 253, N-[2-amino-5-(4-fluorophenyl)phenyl]-6-(methylsulfonimidoyl)thieno[3,2-c]pyridine-2-carboxamide]	500 to 2000	< 100
N=S(=O)(c1ccc(C(=O)Nc2cc(-c3cccs3)ccc2N)cn1)C1CC1 (centres unmarked) [Compound 122, N-[2-amino-5-(2-thienyl)phenyl]-6-(cyclopropylsulfonimidoyl)pyridine-3-carboxamide]	500 to 2000	< 100
Cc1ccncc1S(=N)(=O)c1ccc(C(=O)Nc2cc(-c3ccc(F)cc3)ccc2N)cc1 (centres unmarked) [Compound 198, N-[2-amino-5-(4-fluorophenyl)phenyl]-4-[(4-methyl-3-pyridyl)sulfonimidoyl]benzamide]	500 to 2000	< 100
N=S(=O)(c1ccc(C(=O)Nc2cc(-c3cccs3)ccc2N)cc1)C1CC1 (centres unmarked) [Compound 103, N-[2-amino-5-(2-thienyl)phenyl]-4-(cyclopropylsulfonimidoyl)benzamide]	500 to 2000	< 100

Compound	IC50 (HDAC3/NCor2) [nM]	IC50 (Recombinant HDAC1) [nM]
CS(=N)(=O)c1cnc2sc(C(=O)Nc3cc(-c4ccc(F)cc4)ccc3N)cc2c1 (centres unmarked) [Compound 202, N-[2-amino-5-(4-fluorophenyl)phenyl]-5-(methylsulfonimidoyl)thieno[2,3-b]pyridine-2-carboxamide]	> 2000	< 100
N=S(=O)(c1ccc(C(=O)Nc2cc(-c3ccc(F)cc3)ccc2N)cc1)c1cncc(F)c1 (centres unmarked) [Compound 206, N-(4-amino-4′-fluoro-[1,1′-biphenyl]-3-yl)-4-(5-fluoropyridine-3-sulfonimidoyl)benzamide]	500 to 2000	< 100
CCN=S(C)(=O)c1ccc2oc(C(=O)Nc3cc(-c4ccc(F)cc4)ccc3N)cc2c1 (centres unmarked) [Compound 237, N-[2-amino-5-(4-fluorophenyl)phenyl]-5-(N-ethyl-S-methyl-sulfonimidoyl)benzofuran-2-carboxamide]	500 to 2000	< 100
N#Cc1cncc(S(=N)(=O)c2ccc(C(=O)Nc3cc(-c4ccc(F)cc4)ccc3N)cc2)c1 (centres unmarked) [Compound 232, N-(4-amino-4′-fluoro-[1,1′-biphenyl]-3-yl)-4-(5-cyanopyridine-3-sulfonimidoyl)benzamide]	> 2000	< 100
N=S(=O)(c1ccc(C(=O)Nc2cc(-c3ccccn3)ccc2N)cc1)C1CC1 (centres unmarked) [Compound 120, N-[2-amino-5-(2-pyridyl)phenyl]-4-(cyclopropylsulfonimidoyl)benzamide]	> 2000	100 to 500
CS(=N)(=O)c1ccc(C(=O)Nc2cc(-c3ncccn3)ccc2N)cc1 (centres unmarked) [Compound 158, N-(2-amino-5-pyrimidin-2-yl-phenyl)-4-(methylsulfonimidoyl)benzamide]	> 2000	500 to 2000
CS(=O)(=NC#N)c1ccc(C(=O)Nc2cc(-c3cccs3)ccc2N)cc1 (centres unmarked) [Compound 153, N-[2-amino-5-(2-thienyl)phenyl]-4-(N-cyano-S-methyl-sulfonimidoyl)benzamide]	500 to 2000	< 100
N=S(=O)(c1ccc(C(=O)Nc2cc(-c3ccc(F)cc3)ccc2N)cc1)c1ccccc1F (centres unmarked) [Compound 197, N-[2-amino-5-(4-fluorophenyl)phenyl]-4-[(2-fluorophenyl)sulfonimidoyl]benzamide]	100 to 500	< 100
CS(=N)(=O)c1ccc(C(=O)Nc2cc(-c3cncs3)ccc2N)cc1 (centres unmarked) [Compound 148, N-(2-amino-5-thiazol-5-yl-phenyl)-4-(methylsulfonimidoyl)benzamide]	500 to 2000	< 100
CS(=N)(=O)c1cc2ccc(C(=O)Nc3cc(-c4ccc(F)cc4)ccc3N)cc2s1 (centres unmarked) [Compound 236, N-[2-amino-5-(4-fluorophenyl)phenyl]-2-(methylsulfonimidoyl)benzothiophene-6-carboxamide]	100 to 500	< 100
CS(=N)(=O)c1cnc(C(=O)Nc2cc(-c3ccc(F)cc3)ccc2N)s1 (centres unmarked) [Compound 188, N-[2-amino-5-(4-fluorophenyl)phenyl]-5-(methylsulfonimidoyl)thiazole-2-carboxamide]	500 to 2000	< 100
N=S(=O)(c1ccc(C(=O)Nc2cc(-c3ccc(F)cc3)ccc2N)cc1)c1ccc(F)cn1 (centres unmarked) [Compound 247, N-[2-amino-5-(4-fluorophenyl)phenyl]-4-[(5-fluoro-2-pyridyl)sulfonimidoyl]benzamide]	500 to 2000	< 100
N=S(=O)(c1ccc(C(=O)Nc2cc(-c3ccc(F)cc3)ccc2N)cc1)c1ccc(CO)nc1 (centres unmarked) [Compound 208]	500 to 2000	< 100
CS(=O)(=NC1CC1)c1ccc2oc(C(=O)Nc3cc(-c4ccc(F)cc4)ccc3N)cc2c1 (centres unmarked) [Compound 230, N-[2-amino-5-(4-fluorophenyl)phenyl]-5-(N-cyclopropyl-S-methyl-sulfonimidoyl)benzofuran-2-carboxamide]	500 to 2000	< 100
COc1ncc(S(=N)(=O)c2ccc(C(=O)Nc3cc(-c4ccc(F)cc4)ccc3N)cc2)[nH]1 (centres unmarked) [Compound 252, N-[2-amino-5-(4-fluorophenyl)phenyl]-4-[(2-methoxy-1H-imidazol-5-yl)sulfonimidoyl]benzamide]	> 2000	< 100
